Experimental data as given in patent publication US20240360076A1, “NONIONIC SURFACTANTS” (priority 2023, published 2024).

Key:
[1] = tested on: Ex2B target template; assay: Ex2B LAMP assay; settings: 0.0075% in LAMP MasterMix
Experimental: DS2 was added at 0%, 0.015%, 0.0575%, and 0.1% to the LAMP MasterMix, or LAMP buffer, containing target-specific primers, dNTPs, DNA polymerase, reverse transcriptase, intercalating fluorescent dye, and the target RNA sequence. This reaction mixture was incubated at 62° C. for 50 minutes and the increase in fluorescence was assessed to determine the time to positivity.
DS2, DS13, and DS17 were added at 0.0075% to the LAMP MasterMix using the above procedure with Ex2B target template (FIG. 4B).

[2] = tested on: SARS-COV-2 target template; assay: SARS-COV-2 LAMP assay; assay type: biochemical; settings: 0.0075% in LAMP MasterMix
[3] = tested on: FluB target RNA sequence; assay: FluB LAMP assay, time to positive; assay type: biochemical; settings: for compatibility with FluB assay: presence of nasal matrix
Experimental: As the surfactant concentration approaches its critical micelle concentration (CMC), detrimental impact is observed on LAMP performance.
It was determined that DS2 is compatible with FluB assay in the presence of nasal matrix at 0.015%.

[4] = 2 months
[5] = assay type: physicochemical; settings: buffer, 1 month, 0.1 %, pH 8.8
Experimental: Solutions of isothermal amplification buffers at pH 8.8 containing 0.1% of DS2, DS13, or DS17 were kept at 25° C. and analyzed over time using HPLC. It was observed that 95%-100% of the surfactant remained after one month (FIG. 5A) and therefore DSs are stable in pH 8.8 amplification buffer when stored in ambient conditions.

[6] = tested on: MS2 template; assay: Lyophilized MS2 LAMP chemistry, time to positive; assay type: biochemical; settings: 0%, 0.03% or 0.06%; template 0.12 cp/μL and 0.06 cp/μL
[7] = CMC determination by dynamic light scattering; assay type: physicochemical
Experimental: Average micelle radius data was collected on a DynaPro NanoStar Dynamic Light Scattering Detector. To each disposable cuvette was added 5 μL of the specified solution of DS1, DS2, or DS13 in water (T=25° C., n=10).

| Structure (SMILES) | compatibility with Ex2B assay [1] | compatibility with SARS-COV-2 assay [2] | compatibility with FluB assay ([3]; 0.0075% in LAMP MasterMix) | remaining [4] [%] | surfactant remaining [5] | impact on time to positive (Tp, min) [6] | critical micelle concentration (CMC) [7] [%] | compatibility with FluB assay ([3]; 0.015% in LAMP buffer) | impact on LAMP performance at the CMC ([3]; 0.1% DS2, FluB LAMP, nasal matrix, 62° C. for 50 minutes) | impact on assay specificity below the CMC ([3]; concentrations below the CMC) |
| --- | --- | --- | --- | --- | --- | --- | --- | --- | --- | --- |
| CCCCCCCCCCC(=O)N(CCOCCOCCOCCOC)CCOCCOCCOCCOC [DS13] | compatible | compatible | compatible | 97.1±1.5 | 95%-100 | no detrimental impact |  |  |  |  |
| CCCCCCCCCCC(=O)N(CCOCCOCCOC)CCOCCOCCOC [DS2] | compatible | compatible | compatible |  | 95%-100 |  | 0.1 | compatible | delay in the contrived positive amplification | no detrimental impact |
| CCCCCCCCCCC(=O)NCCOCCOCCOCCOCCOCCOC [DS17] | compatible | compatible | compatible |  | 95%-100 |  |  |  |  |  |
